Drawing on ChEMBL document CHEMBL1139152, “Epoxygenase eicosanoids: synthesis of tetrahydrofuran-diol metabolites and their vasoactivity” (Bioorg Med Chem Lett, 2007), this text covers Activity and ED50 for 7 compounds.

Activity calls are given as the source filed them. No cut-off for these calls is given here.

A short description of experiment [1]: Vasodilatory activity assessed as relaxation of U46619-induced contraction of bovine coronary arteries at 10 nM to 10 uM. It counts as functional, tissue-based. Particulars: Bos taurus, Coronary artery.
Experiment [2] can be described thus: Vasodilatory activity assessed as relaxation of U46619-induced contraction of bovine coronary arteries. The format is functional. Particulars: Bos taurus; Coronary artery.

On to `CCCCCC1OC1C/C=C/C/C=C/C/C=C/CCCC(=O)O` (centres undefined), for which the outcome in experiment [1] was Active. The ED50 in experiment [2] is 2.5 µM.

For the compound `CCCCC/C=C\C[C@H]1O[C@H]([C@H](O)C/C=C\CCCC(=O)O)C[C@H]1O`, the result in experiment [1] was Active. For the same compound, the ED50 in experiment [2] is 3 µM.

On to `CCCCC/C=C\C[C@H]1O[C@H]([C@@H](O)C/C=C\CCCC(=O)O)C[C@@H]1O`, for which the outcome in experiment [1] was Active.

For `CCCCC/C=C\C[C@H]1O[C@H]([C@@H](O)C/C=C\CCCC(=O)O)C[C@H]1O`, the outcome in experiment [1] was Active.

As to `CCCCC/C=C\C[C@H]1O[C@H]([C@H](O)C/C=C\CCCC(=O)O)C[C@@H]1O`, in experiment [1], the result was Active.

For the compound `CCCCC/C=C\C[C@@H]1O[C@H]([C@H](O)C/C=C\CCCC(=O)O)C[C@H]1O`, the outcome in experiment [1] was Active.

`CCCCC/C=C\C[C@@H]1O[C@H]([C@H](O)C/C=C\CCCC(=O)O)C[C@@H]1O`: the outcome in experiment [1] was Active.
